Experimental data from the supplement of paper PMC10307832.

Key:
Assay in all cases: relative viability (nuclei count vs DMSO), 5 days (fraction); higher = more cells survive
Cediranib + Palbociclib = compound: COc1cc2c(Oc3ccc4[nH]c(C)cc4c3F)ncnc2cc1OCCCN1CCCC1 [Cediranib] + CC(=O)c1c(C)c2cnc(Nc3ccc(N4CCNCC4)cn3)nc2n(C2CCCC2)c1=O [Palbociclib] (partner 0.5 µM)
Summary of the method: (§1)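 One day after seeding in 1536-well plates, lung cancer cell lines were dosed by pin tool. Dosing was either single-drug or a fixed anchor-drug dose plus five library-drug doses (not always all listed) in √10 steps. After 5 days, nuclei were stained in one fix-and-stain step and counted on 4× images, and relative viability is the nuclei count of treated wells over that of vehicle wells, given as the median of duplicate plates.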

[1] = compound: O=C(C[C@H]1NCCC[C@@H]1O)Cn1cnc2cc(Br)c(Cl)cc2c1=O (racemic) [Halofuginone] + CC(=O)c1c(C)c2cnc(Nc3ccc(N4CCNCC4)cn3)nc2n(C2CCCC2)c1=O [Palbociclib] (partner 0.5 µM)
Summary of the method: as §1

Decitabine + Crizotinib = compound: Nc1ncn([C@H]2C[C@H](O)[C@@H](CO)O2)c(=O)n1 [Decitabine] + C[C@@H](Oc1cc(-c2cnn(C3CCNCC3)c2)cnc1N)c1c(Cl)ccc(F)c1Cl [Crizotinib] (partner 1 µM)
Summary of the method: as §1

Decitabine + Pictilisib = compound: Nc1ncn([C@H]2C[C@H](O)[C@@H](CO)O2)c(=O)n1 [Decitabine] + CS(=O)(=O)N1CCN(Cc2cc3nc(-c4cccc5[nH]ncc45)nc(N4CCOCC4)c3s2)CC1 [Pictilisib] (partner 1 µM)
Summary of the method: as §1

## NCI-H2405
Cediranib + Palbociclib; first compound 0.04 µM
  relative viability: 0.532
Cediranib + Palbociclib; first compound 0.1265 µM
  relative viability: 0.574
Cediranib + Palbociclib; first compound 0.4 µM
  relative viability: 0.516
Cediranib + Palbociclib; first compound 1.265 µM
  relative viability: 0.546
Cediranib + Palbociclib; first compound 4 µM
  relative viability: 0.514
[1]; first compound 0.001 µM
  relative viability: 0.573
[1]; first compound 0.003162 µM
  relative viability: 0.565
[1]; first compound 0.01 µM
  relative viability: 0.527
[1]; first compound 0.03162 µM
  relative viability: 0.498
[1]; first compound 0.1 µM
  relative viability: 0.424
Decitabine + Crizotinib; first compound 0.04 µM
  relative viability: 0.807
Decitabine + Crizotinib; first compound 0.1265 µM
  relative viability: 0.759
Decitabine + Crizotinib; first compound 0.4 µM
  relative viability: 0.671
Decitabine + Crizotinib; first compound 1.265 µM
  relative viability: 0.562
Decitabine + Crizotinib; first compound 4 µM
  relative viability: 0.41
Decitabine + Pictilisib; first compound 0.04 µM
  relative viability: 0.457
Decitabine + Pictilisib; first compound 0.1265 µM
  relative viability: 0.453
Decitabine + Pictilisib; first compound 0.4 µM
  relative viability: 0.562
Decitabine + Pictilisib; first compound 1.265 µM
  relative viability: 0.406
Decitabine + Pictilisib; first compound 4 µM
  relative viability: 0.298

## NCI-H3122
Cediranib + Palbociclib; first compound 0.04 µM
  relative viability: 0.209
Cediranib + Palbociclib; first compound 0.4 µM
  relative viability: 0.186
Cediranib + Palbociclib; first compound 1.265 µM
  relative viability: 0.199
Cediranib + Palbociclib; first compound 4 µM
  relative viability: 0.175
[1]; first compound 0.001 µM
  relative viability: 0.186
[1]; first compound 0.003162 µM
  relative viability: 0.155
[1]; first compound 0.01 µM
  relative viability: 0.162
[1]; first compound 0.03162 µM
  relative viability: 0.186
[1]; first compound 0.1 µM
  relative viability: 0.19
Decitabine + Crizotinib; first compound 0.04 µM
  relative viability: 0.258
Decitabine + Crizotinib; first compound 0.1265 µM
  relative viability: 0.251
Decitabine + Crizotinib; first compound 0.4 µM
  relative viability: 0.277
Decitabine + Crizotinib; first compound 1.265 µM
  relative viability: 0.346
Decitabine + Crizotinib; first compound 4 µM
  relative viability: 0.28
Decitabine + Pictilisib; first compound 0.04 µM
  relative viability: 0.64
Decitabine + Pictilisib; first compound 0.1265 µM
  relative viability: 0.564
Decitabine + Pictilisib; first compound 0.4 µM
  relative viability: 0.399
Decitabine + Pictilisib; first compound 1.265 µM
  relative viability: 0.571
Decitabine + Pictilisib; first compound 4 µM
  relative viability: 0.517

## PC-3 [JPC-3]
Cediranib + Palbociclib; first compound 0.04 µM
  relative viability: 0.571
Cediranib + Palbociclib; first compound 0.4 µM
  relative viability: 0.515
Cediranib + Palbociclib; first compound 1.265 µM
  relative viability: 0.559
Cediranib + Palbociclib; first compound 4 µM
  relative viability: 0.563
[1]; first compound 0.001 µM
  relative viability: 0.595
[1]; first compound 0.003162 µM
  relative viability: 0.511
[1]; first compound 0.01 µM
  relative viability: 0.529
[1]; first compound 0.03162 µM
  relative viability: 0.516
[1]; first compound 0.1 µM
  relative viability: 0.493
Decitabine + Crizotinib; first compound 0.1265 µM
  relative viability: 0.728
Decitabine + Crizotinib; first compound 0.4 µM
  relative viability: 0.388
Decitabine + Crizotinib; first compound 1.265 µM
  relative viability: 0.536
Decitabine + Crizotinib; first compound 4 µM
  relative viability: 0.516
Decitabine + Pictilisib; first compound 0.1265 µM
  relative viability: 0.733
Decitabine + Pictilisib; first compound 0.4 µM
  relative viability: 0.434
Decitabine + Pictilisib; first compound 1.265 µM
  relative viability: 0.609
Decitabine + Pictilisib; first compound 4 µM
  relative viability: 0.646

## PC-14
Cediranib + Palbociclib; first compound 0.04 µM
  relative viability: 0.601
Cediranib + Palbociclib; first compound 0.1265 µM
  relative viability: 0.627
Cediranib + Palbociclib; first compound 0.4 µM
  relative viability: 0.487
Cediranib + Palbociclib; first compound 1.265 µM
  relative viability: 0.439
Cediranib + Palbociclib; first compound 4 µM
  relative viability: 0.328
[1]; first compound 0.001 µM
  relative viability: 0.509
[1]; first compound 0.003162 µM
  relative viability: 0.597
[1]; first compound 0.01 µM
  relative viability: 0.514
[1]; first compound 0.03162 µM
  relative viability: 0.17
[1]; first compound 0.1 µM
  relative viability: 0.0426
Decitabine + Crizotinib; first compound 0.1265 µM
  relative viability: 0.57
Decitabine + Crizotinib; first compound 0.4 µM
  relative viability: 0.258
Decitabine + Crizotinib; first compound 1.265 µM
  relative viability: 0.27
Decitabine + Crizotinib; first compound 4 µM
  relative viability: 0.225
Decitabine + Pictilisib; first compound 0.04 µM
  relative viability: 0.0668
Decitabine + Pictilisib; first compound 0.1265 µM
  relative viability: 0.749
Decitabine + Pictilisib; first compound 0.4 µM
  relative viability: 0.348
Decitabine + Pictilisib; first compound 1.265 µM
  relative viability: 0.28
Decitabine + Pictilisib; first compound 4 µM
  relative viability: 0.11

## RERF-LC-KJ
Cediranib + Palbociclib; first compound 0.04 µM
  relative viability: 1.15
Cediranib + Palbociclib; first compound 0.1265 µM
  relative viability: 1.02
Cediranib + Palbociclib; first compound 0.4 µM
  relative viability: 1
Cediranib + Palbociclib; first compound 1.265 µM
  relative viability: 1.15
Cediranib + Palbociclib; first compound 4 µM
  relative viability: 1.13
[1]; first compound 0.001 µM
  relative viability: 1.18
[1]; first compound 0.003162 µM
  relative viability: 0.973
[1]; first compound 0.01 µM
  relative viability: 1.12
[1]; first compound 0.03162 µM
  relative viability: 1.03
[1]; first compound 0.1 µM
  relative viability: 0.811
Decitabine + Crizotinib; first compound 0.04 µM
  relative viability: 0.812
Decitabine + Crizotinib; first compound 0.1265 µM
  relative viability: 0.77
Decitabine + Crizotinib; first compound 0.4 µM
  relative viability: 0.245
Decitabine + Crizotinib; first compound 1.265 µM
  relative viability: 0.551
Decitabine + Crizotinib; first compound 4 µM
  relative viability: 0.561
Decitabine + Pictilisib; first compound 0.04 µM
  relative viability: 0.508
Decitabine + Pictilisib; first compound 0.1265 µM
  relative viability: 0.607
Decitabine + Pictilisib; first compound 0.4 µM
  relative viability: 0.403
Decitabine + Pictilisib; first compound 1.265 µM
  relative viability: 0.368
Decitabine + Pictilisib; first compound 4 µM
  relative viability: 0.354

## SK-LU-1
Cediranib + Palbociclib; first compound 0.04 µM
  relative viability: 0.434
Cediranib + Palbociclib; first compound 0.1265 µM
  relative viability: 0.441
Cediranib + Palbociclib; first compound 0.4 µM
  relative viability: 0.385
Cediranib + Palbociclib; first compound 1.265 µM
  relative viability: 0.375
Cediranib + Palbociclib; first compound 4 µM
  relative viability: 0.383
[1]; first compound 0.001 µM
  relative viability: 0.389
[1]; first compound 0.003162 µM
  relative viability: 0.439
[1]; first compound 0.01 µM
  relative viability: 0.369
[1]; first compound 0.03162 µM
  relative viability: 0.368
[1]; first compound 0.1 µM
  relative viability: 0.319
Decitabine + Crizotinib; first compound 0.04 µM
  relative viability: 0.668
Decitabine + Crizotinib; first compound 0.1265 µM
  relative viability: 0.614
Decitabine + Crizotinib; first compound 0.4 µM
  relative viability: 0.352
Decitabine + Crizotinib; first compound 1.265 µM
  relative viability: 0.484
Decitabine + Crizotinib; first compound 4 µM
  relative viability: 0.453
Decitabine + Pictilisib; first compound 0.04 µM
  relative viability: 0.53
Decitabine + Pictilisib; first compound 0.1265 µM
  relative viability: 0.447
Decitabine + Pictilisib; first compound 0.4 µM
  relative viability: 0.306
Decitabine + Pictilisib; first compound 1.265 µM
  relative viability: 0.365
Decitabine + Pictilisib; first compound 4 µM
  relative viability: 0.282

## SK-MES-1
Cediranib + Palbociclib; first compound 0.04 µM
  relative viability: 0.304
Cediranib + Palbociclib; first compound 0.1265 µM
  relative viability: 0.311
Cediranib + Palbociclib; first compound 0.4 µM
  relative viability: 0.328
Cediranib + Palbociclib; first compound 1.265 µM
  relative viability: 0.283
Cediranib + Palbociclib; first compound 4 µM
  relative viability: 0.324
[1]; first compound 0.001 µM
  relative viability: 0.341
[1]; first compound 0.003162 µM
  relative viability: 0.33
[1]; first compound 0.01 µM
  relative viability: 0.323
[1]; first compound 0.03162 µM
  relative viability: 0.257
[1]; first compound 0.1 µM
  relative viability: 0.186
Decitabine + Crizotinib; first compound 0.04 µM
  relative viability: 0.866
Decitabine + Crizotinib; first compound 0.1265 µM
  relative viability: 0.703
Decitabine + Crizotinib; first compound 0.4 µM
  relative viability: 0.329
Decitabine + Crizotinib; first compound 1.265 µM
  relative viability: 0.333
Decitabine + Crizotinib; first compound 4 µM
  relative viability: 0.289
Decitabine + Pictilisib; first compound 0.04 µM
  relative viability: 0.258
Decitabine + Pictilisib; first compound 0.1265 µM
  relative viability: 0.367
Decitabine + Pictilisib; first compound 0.4 µM
  relative viability: 0.427
Decitabine + Pictilisib; first compound 1.265 µM
  relative viability: 0.271
Decitabine + Pictilisib; first compound 4 µM
  relative viability: 0.243

## SW 1573
Cediranib + Palbociclib; first compound 0.04 µM
  relative viability: 0.362
Cediranib + Palbociclib; first compound 0.1265 µM
  relative viability: 0.412
Cediranib + Palbociclib; first compound 0.4 µM
  relative viability: 0.394
Cediranib + Palbociclib; first compound 1.265 µM
  relative viability: 0.389
Cediranib + Palbociclib; first compound 4 µM
  relative viability: 0.382
[1]; first compound 0.001 µM
  relative viability: 0.422
[1]; first compound 0.01 µM
  relative viability: 0.392
[1]; first compound 0.03162 µM
  relative viability: 0.23
[1]; first compound 0.1 µM
  relative viability: 0.106
Decitabine + Crizotinib; first compound 0.04 µM
  relative viability: 0.627
Decitabine + Crizotinib; first compound 0.1265 µM
  relative viability: 0.961
Decitabine + Crizotinib; first compound 0.4 µM
  relative viability: 0.724
Decitabine + Crizotinib; first compound 1.265 µM
  relative viability: 0.507
Decitabine + Crizotinib; first compound 4 µM
  relative viability: 0.358
Decitabine + Pictilisib; first compound 0.04 µM
  relative viability: 0.535
Decitabine + Pictilisib; first compound 0.1265 µM
  relative viability: 0.425
Decitabine + Pictilisib; first compound 0.4 µM
  relative viability: 0.491
Decitabine + Pictilisib; first compound 1.265 µM
  relative viability: 0.279
Decitabine + Pictilisib; first compound 4 µM
  relative viability: 0.202
